In US20030219482A1, “Multiparticulate compositions for once-a-day administration” (priority 2002, published 2003):
Structures can show the parent of a compound that is named as a salt.

Experiment: Drug release (dissolution) of the controlled release tablets, USP apparatus Type I
Assay type: physicochemical
Settings: 900 ml phosphate buffer pH 7.5, USP Type I basket 100 rpm, Example tablet
Protocol: The tablets were characterized for drug release in 900 ml of phosphate buffer of pH 7.5. The USP apparatus Type I with basket speed at 100 rpm was used for the study. The samples of the media were periodically withdrawn and analyzed for drug content.

Row | Compound | Cumulative percent drug released (1 hour) [%] | Cumulative percent drug released (2 hours) [%] | Cumulative percent drug released (3 hours) [%] | Cumulative percent drug released (4 hours) [%] | Cumulative percent drug released (5 hours) [%] | Cumulative percent drug released (6 hours) [%] | Cumulative percent drug released (8 hours) [%] | Cumulative percent drug released (10 hours) [%] | Cumulative percent drug released (12 hours) [%] | Cumulative percent drug released (15 hours) [%] | Cumulative percent drug released (18 hours) [%] | Cumulative percent drug released (21 hours) [%] | Cumulative percent drug released (24 hours) [%]
1 | Cc1cnc(C(=O)NCCc2ccc(S(=O)(=O)NC(=O)NC3CCCCC3)cc2)cn1 [Glipizide] | 6.5 | 16.6 | 27.1 | 33.9 | 41.5 | 47.3 | 55.4 | 67.9 | 75.2 | 85.8 | 93.0 | 99.4 | 102.5
2 | CN(C)C(=N)N=C(N)N [Metformin Hydrochloride, Metformin hydrochloride] | 28.83 | 49.59 | 64.74 | 78.09 | 88.49 | 93.26 | 97.29 | 100.01 | 103.93 | 105.57 | 105.92 | 105.99 | 106.47
